Source: ChEMBL document CHEMBL6071164, “9,10-Bis[(4-(2-hydroxyethyl)piperazine-1-yl)prop2-yne-1-yl]anthracene: G-Quadruplex Selectivity and Anticancer Activity” (ACS Med Chem Lett, 2024)
The source made the active and inactive calls. The rule behind the calls is not given here.

What was measured:
NCI-H358 = assay: Cytotoxicity against human NCI-H358 cells assessed as reduction in cell viability incubated for 24 hrs by MTT assay; assay type: functional, cell-based; settings: NCI-H358, 24 h
A549 = assay: Cytotoxicity against human A549 cells assessed as reduction in cell viability incubated for 24 hrs by MTT assay; assay type: functional, cell-based; settings: A549, 24 h
[1] = Cytotoxicity against human BEAS-2B cells assessed as reduction in cell viability incubated for 24 hrs by MTT assay; assay type: toxicity, cell-based
NCI-H460 = assay: Cytotoxicity against human NCI-H460 cells assessed as reduction in cell viability incubated for 24 hrs by MTT assay; assay type: functional, cell-based; settings: NCI-H460, 24 h
PC-9 = assay: Cytotoxicity against human PC-9 cells assessed as reduction in cell viability incubated for 24 hrs by MTT assay; assay type: functional, cell-based; settings: PC-9, 24 h
Quadruplex DNA [2] = assay: Binding affinity to wildtype Tel26 G4 DNA (5'-TTAGGGTTAGGGTTAGGGTTAGGGTT-3') (unknown origin) at 10:1 compound:DNA ratio incubated for 30 mins by ESI-MS analysis; assay type: nucleic-acid assay
NCI-H1650 = assay: Cytotoxicity against human NCI-H1650 cells assessed as reduction in cell viability incubated for 24 hrs by MTT assay; assay type: functional, cell-based; settings: NCI-H1650, 24 h
Quadruplex DNA [3] = assay: Binding affinity to Tel23 G4 DNA (unknown origin) in PBS at pH 7.1 at 1.5 mM by wLOGSY analysis; assay type: nucleic-acid assay
NCI-H1975 = assay: Cytotoxicity against human NCI-H1975 cells assessed as reduction in cell viability incubated for 24 hrs by MTT assay; assay type: functional, cell-based; settings: NCI-H1975, 24 h

OCCN1CCN(CC#Cc2c3ccccc3c(C#CCN3CCN(CCO)CC3)c3ccccc23)CC1
IC50 (NCI-H358): 6.21 µM
IC50 (A549): 5.2 µM
IC50 at 24 h [1]: 1.07 µM
IC50 (NCI-H460): 1.91 µM
IC50 (PC-9): 2.5 µM
Activity (Quadruplex DNA [2]): Active
IC50 (NCI-H1650): > 10 µM
Activity (Quadruplex DNA [3]): Active
IC50 (NCI-H1975): 3.22 µM
